Results: US20060100245A1, “Substituted biphenyl-4-carboxylic acid arylamide analogues” (Neurogen Corporation, priority 2002, published 2006)

Target: T1, human capsaicin receptor (VR1) (Homo sapiens, UniProt Q8NER1)
T1 construct: transfected with the pBK-CMV expression construct encoding the full length human capsaicin receptor; expressed in transfected cells
Test: Capsaicin receptor binding assay ([3H]RTX competition)
Details: read-out: Ki
Source text: This Example illustrates the preparation of VR1-transfected cells and membrane preparations for use in binding assays (Example 5) and functional assays (Example 6).
A cDNA encoding full length human capsaicin receptor (SEQ ID NO: 1, 2 or 3 of U.S. Pat. No. 6,482,611) was subcloned in the plasmid pBK-CMV (Stratagene, La Jolla, Calif.) for recombinant expression in mammalian cells.
Human embryonic kidney (HEK293) cells were transfected with the pBK-CMV expression construct encoding the full length human capsaicin receptor using standard methods. The transfected cells were selected for two weeks in media containing G418 ([…]) to obtain a pool of stably transfected cells. Independent clones were isolated from this pool by limiting dilution to obtain clonal stable cell lines for use in subsequent experiments.
For radioligand binding experiments, cells were seeded in T175 cell culture flasks in media without antibiotics and grown to approximately 90% confluency. The flasks were then washed with PBS and harvested in PBS containing 5 mM EDTA. The cells were pelleted by gentle centrifugation and stored at −80° C. until assayed.
Previously frozen cells were disrupted with the aid of a tissue homogenizer in ice-cold HEPES homogenization buffer (5mM KCl 5, 5.8 mM NaCl, 0.75 mM CaCl2, 2 mM MgCl2, 320 mM sucrose, and 10 mM HEPES pH 7.4). Tissue homogenates were first centrifuged for 10 minutes at 1000×g (4° C.) to remove the nuclear fraction and debris, and then the supernatant from the first centrifugation is further centrifuged for 30 minutes at 35,000×g (4° C.) to obtain a partially purified membrane fraction. Membranes were resuspended in the HEPES homogenization buffer prior to the assay. An aliquot of this membrane homogenate is used to determine protein concentration via the Bradford method (BIO-RAD Protein Assay Kit, #500-0001, BIO-RAD, Hercules, Calif.).
This Example illustrates a representative assay of capsaicin receptor binding that may be used to determine the binding affinity of compounds for the capsaicin (VR1) receptor.
Binding studies with [^3H] Resiniferatoxin (RTX) are carried out essentially as described by Szallasi and Blumberg (1992) J. Pharmacol. Exp. Ter. 262: 883-888. In this protocol, non-specific RTX binding is reduced by adding bovine alpha, acid glycoprotein (100 μg per tube) after the binding reaction has been terminated.
[^3H] RTX (37 Ci/mmol) is synthesized by and obtained from the Chemical Synthesis and Analysis Laboratory, National Cancer Institute-Frederick Cancer Research and Development Center, Frederick, Md. [^3H] RTX may also be obtained from commercial vendors (e.g., Amersham Pharmacia Biotech, Inc.; Piscataway, N.J.).
The membrane homogenate of Example 4 is centrifuged as before and resuspended to a protein concentration of 333 μg/ml in homogenization buffer. Binding assay mixtures are set up on ice and contain [^3H]JRTX (specific activity 2200 mCi/ml), 2 μl non-radioactive test compound, 0.25 mg/ml bovine serum albumin (Cohn fraction V), and 5×10^4−1×10^5 VR1-transfected cells. The final volume is adjusted to 500 μl (for competition binding assays) or 1,000 μl (for saturation binding assays) with the ice-cold HEPES homogenization buffer solution (pH 7.4) described above. Non-specific binding is defined as that occurring in the presence of 1 μM non-radioactive RTX (Alexis Corp.; San Diego, Calif.). For saturation binding, [^3H]RTX is added in the concentration range of […], using 1 to 2 dilutions. Typically 11 concentration points are collected per saturation binding curve.
Competition binding assays are performed in the presence of 60 pM [^3H]RTX and various concentrations of test compound. The binding reactions are initiated by transferring the assay mixtures into a 37° C. water bath and are terminated following a 60 minute incubation period by cooling the tubes on ice.

T1 sequence (Q8NER1 whole entry): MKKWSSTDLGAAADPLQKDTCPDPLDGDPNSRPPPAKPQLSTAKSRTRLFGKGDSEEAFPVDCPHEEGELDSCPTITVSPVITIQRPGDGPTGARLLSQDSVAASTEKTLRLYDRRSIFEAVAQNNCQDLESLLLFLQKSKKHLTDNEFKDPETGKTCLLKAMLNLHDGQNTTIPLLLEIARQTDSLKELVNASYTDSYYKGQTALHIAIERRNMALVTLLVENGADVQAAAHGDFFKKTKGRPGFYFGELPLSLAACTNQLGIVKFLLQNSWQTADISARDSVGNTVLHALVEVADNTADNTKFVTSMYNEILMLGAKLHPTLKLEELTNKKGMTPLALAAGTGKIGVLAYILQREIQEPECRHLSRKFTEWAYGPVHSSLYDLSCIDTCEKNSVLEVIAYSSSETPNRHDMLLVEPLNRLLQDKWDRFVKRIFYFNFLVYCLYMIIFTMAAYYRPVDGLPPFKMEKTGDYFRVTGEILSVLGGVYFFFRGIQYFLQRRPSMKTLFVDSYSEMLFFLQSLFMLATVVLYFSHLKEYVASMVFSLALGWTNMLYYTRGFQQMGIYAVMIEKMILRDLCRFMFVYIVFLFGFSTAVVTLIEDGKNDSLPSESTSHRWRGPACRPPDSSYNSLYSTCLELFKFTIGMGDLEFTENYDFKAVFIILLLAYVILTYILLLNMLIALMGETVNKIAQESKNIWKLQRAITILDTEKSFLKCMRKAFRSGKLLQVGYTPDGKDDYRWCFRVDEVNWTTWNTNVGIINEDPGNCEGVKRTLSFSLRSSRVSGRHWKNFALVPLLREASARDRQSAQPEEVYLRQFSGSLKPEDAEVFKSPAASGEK

| SMILES | Ki [µM] |
| --- | --- |
| CC(C)(C)c1ccc(NC(=O)c2ccc(-c3ccc(F)cc3F)nc2)cc1 [Compound 437, N-(4-tert-Butyl-phenyl)-6-(2,4-difluoro-phenyl)-nicotinamide] | < 1 |
| CCC(C)c1ccc(NC(=O)c2ccc(-c3ncccc3F)cc2)cc1 (stereo not drawn) [Compound 390, N-(4-sec-Butyl-phenyl)-4-(3-fluoro-pyridin-2-yl)-benzamide] | < 1 |
| COc1ccc(F)cc1-c1ccc(C(=O)Nc2ccc(C(C)(C)C)cc2Cl)cn1 [Compound 391, N-(4-tert-Butyl-2-chloro-phenyl)-6-(5-fluoro-2-methoxy-phenyl)-nicotinamide] | < 1 |
| O=C(Nc1ccc(C(F)(F)F)cc1)c1ccc(-c2ncccc2C(F)(F)F)cc1O [Compound 16, 2-Hydroxy-N-(4-trifluoromethyl-phenyl)-4-(3-trifluoromethyl-pyridin-2-yl)-benzamide] | < 1 |
| CC(C)(C)c1ccc(NC(=O)c2ccc(-c3ccccc3Cl)cc2)cc1 [Compound 15, 2′-Chloro-biphenyl-4-carboxylic acid (4-tert-butyl-phenyl)-amide] | < 1 |
| CC(C)(C)c1ccc(NC(=O)c2ccc(-c3ccccc3NS(C)(=O)=O)nc2)cc1 [Compound 445, N-(4-tert-Butyl-phenyl)-6-(2-methanesulfonylamino-phenyl)-nicotinamide] | < 1 |
| CC(C)(C)c1ccc(NC(=O)c2ccc(-c3ncccc3C(F)(F)F)cc2)cc1 [Compound 421, N-(4-tert-Butyl-phenyl)-4-(3-trifluoromethyl-pyridin-2-yl)-benzamide] | < 1 |
| CCOc1cccc(-c2ccc(C(=O)Nc3ccc(Br)c(Cl)c3)cn2)c1 [Compound 317, N-(4-Bromo-3-chloro-phenyl)-6-(3-ethoxy-phenyl)-nicotinamide] | < 1 |
| COc1cccc(NC(=O)c2ccc(-c3cccc(C(C)C)c3)nc2)c1 [Compound 131, 6-(3-Isopropyl-phenyl)-N-(3-methoxy-phenyl)-nicotinamide] | < 1 |
| CC(C)c1ccc(NC(=O)c2ccc(-c3ncccc3F)cc2)cc1 [Compound 34, 4-(3-Fluoro-pyridin-2-yl)-N-(4-isopropyl-phenyl)-benzamide] | < 1 |
| CC(C)(C)c1ccc(NC(=O)c2ccc(-c3ccncc3[N+](=O)[O-])cc2)cc1 [Compound 416, N-(4-tert-Butyl-phenyl)-4-(3-nitro-pyridin-4-yl)-benzamide] | < 1 |
| Cc1cc(NC(=O)c2ccc(-c3ncccc3F)cc2)ccc1C(C)C [Compound 33, 4-(3-Fluoro-pyridin-2-yl)-N-(4-isopropyl-3-methyl-phenyl)-benzamide] | < 1 |
| CCCc1ccc(NC(=O)c2ccc(-c3ccccc3Cl)nc2)cc1 [Compound 77, 6-(2-Chloro-phenyl)-N-(4-propyl-phenyl)-nicotinamide] | < 1 |
| Cc1cc(C)cc(-c2ccc(C(=O)Nc3ccc(C)c(C)c3)cn2)c1 [Compound 237, N-(3,4-Dimethyl-phenyl)-6-(3,5-dimethyl-phenyl)-nicotinamide] | < 1 |
| Cc1ccc(-c2ccc(C(=O)Nc3ccc4c(c3)CCC4)cn2)cc1C [Compound 109, 6-(3,4-Dimethyl-phenyl)-N-indan-5-yl-nicotinamide] | < 1 |
| Cc1ccc(NC(=O)c2ccc(-c3cccc(F)c3)nc2)cc1C [Compound 239, N-(3,4-Dimethyl-phenyl)-6-(3-fluoro-phenyl)-nicotinamide] | < 1 |
| CN(c1cccnc1-c1ccc(C(=O)Nc2ccc(C(C)(C)C)cc2)cc1)S(C)(=O)=O [Compound 425, N-(4-tert-Butyl-phenyl)-4-[3-(methanesulfonyl-methyl-amino)-pyridin-2-yl]-benzamide] | < 1 |
| Nc1cc(-c2ncccc2C(F)(F)F)ccc1C(=O)Nc1ccc(C(F)(F)F)cc1 [Compound 13, 2-Amino-N-(4-trifluoromethyl-phenyl)-4-(3-trifluoromethyl-pyridin-2-yl)-benzamide] | < 1 |

| SMILES | Ki [µM] |
| --- | --- |
| CC(C)c1ccc(NC(=O)c2ccc(-c3ccccc3F)nc2)cc1 [Compound 89, 6-(2-Fluoro-phenyl)-N-(4-isopropyl-phenyl)-nicotinamide] | < 1 |
| Cc1cccc(-c2ccc(C(=O)Nc3ccc4sc(C)nc4c3)cn2)c1 [Compound 208, N-(2-Methyl-benzothiazol-5-yl)-6-m-tolyl-nicotinamide] | < 1 |
| COc1ccccc1-c1ccc(C(=O)Nc2ccc(C(F)(F)F)cc2)cn1 [Compound 99, 6-(2-Methoxy-phenyl)-N-(4-trifluoromethyl-phenyl)-nicotinamide] | < 1 |
| Cc1cccc(-c2ccc(C(=O)Nc3ccc4c(c3)OCCO4)cn2)c1 [Compound 202, N-(2,3-Dihydro-benzo[1,4]dioxin-6-yl)-6-m-tolyl-nicotinamide] | < 1 |
| CCCc1ccc(NC(=O)c2ccc(-c3cc(Cl)ccc3OC)nc2)cc1 [Compound 157, 6-(5-Chloro-2-methoxy-phenyl)-N-(4-propyl-phenyl)-nicotinamide] | < 1 |
| CS(=O)(=O)Nc1cc(-c2ncccc2C(F)(F)F)ccc1C(=O)Nc1ccc(C(F)(F)F)cc1 [Compound 17, 2-Methanesulfonylamino-N-(4-trifluoromethyl-phenyl)-4-(3-trifluoromethyl-pyridin-2-yl)-benzamide] | < 1 |
| Cc1nc2cc(NC(=O)c3ccc(-c4ccccc4F)nc3)ccc2s1 [Compound 85, 6-(2-Fluoro-phenyl)-N-(2-methyl-benzothiazol-5-yl)-nicotinamide] | < 1 |
| CCOc1ccc(-c2ccc(C(=O)Nc3ccc(C(C)(C)C)cc3)cn2)c(Cl)c1 [Compound 440, N-(4-tert-Butyl-phenyl)-6-(2-chloro-4-ethoxy-phenyl)-nicotinamide] | < 1 |
| Cc1nc(-c2ncccc2C(F)(F)F)ccc1C(=O)Nc1ccc(C(F)(F)F)cc1 [Compound 181, 6-Methyl-3′-trifluoromethyl-[2,2′]bipyridinyl-5-carboxylic acid (4-trifluoromethyl-phenyl)-amide] | < 1 |
| Cc1ccc(C)c(-c2ccc(C(=O)Nc3ccc(C(F)(F)F)cc3)cn2)c1 [Compound 56, 6-(2,5-Dimethyl-phenyl)-N-(4-trifluoromethyl-phenyl)-nicotinamide] | < 1 |
| CC(C)(C)c1ccc(NC(=O)c2ccc(-c3ccncc3N)cc2)cc1 [Compound 24, 4-(3-Amino-pyridin-4-yl)-N-(4-tert-butyl-phenyl)-benzamide] | < 1 |
| O=C(Nc1ccccc1)c1ccc(-c2ccccc2Cl)nc1 [Compound 81, 6-(2-Chloro-phenyl)-N-phenyl-nicotinamide] | < 1 |
| CC(C)(C)c1ccc(NC(=O)c2ccc(-c3ncccc3-c3nnco3)cc2)cc1 [Compound 401, N-(4-tert-Butyl-phenyl)-4-(3-[1,3,4]oxadiazol-2-yl-pyridin-2-yl)-benzamide] | < 1 |
| CN1CCCCC1c1ccc(C(=O)Nc2ccc(C(C)(C)C)cc2)cc1 (stereo not drawn) [Compound 398, N-(4-tert-Butyl-phenyl)-4-(1-methyl-piperidin-2-yl)-benzamide] | < 1 |
| O=C(Nc1ccc2c(c1)OCCCO2)c1ccc(-c2ccccc2F)nc1 [Compound 218, N-(3,4-Dihydro-2H-benzo[b][1,4]dioxepin-7-yl)-6-(2-fluoro-phenyl)-nicotinamide] | < 1 |
| CC(C)(C)c1cccc(NC(=O)c2ccc(-c3cccc(F)c3)nc2)c1 [Compound 296, N-(3-tert-Butyl-phenyl)-6-(3-fluoro-phenyl)-nicotinamide] | < 1 |
| CC(C)(C)c1ccc(NC(=O)c2ccc(-c3ncccc3C(F)(F)F)cc2N)cc1 [Compound 12, 2-Amino-N-(4-tert-butyl-phenyl)-4-(3-trifluoromethyl-pyridin-2-yl)-benzamide] | < 1 |
| COc1cccc(NC(=O)c2ccc(-c3cccc(OC(F)(F)F)c3)nc2)c1 [Compound 278] | < 1 |
